The target of data set [1] is Tyrosine-protein kinase BTK (Mus musculus, UniProt P35991). The data set is described as follows: Inhibition of C57BL/6J mouse BTK assessed as decrease in anti-mouse IgM antibody stimulated BCR mediated CD69 upregulation preincubated for 30 mins followed by antibody challenge after 18 to 24 hrs by flow cytometry. In general terms: In flow cytometry, cells or beads pass a laser one at a time.

The target in data set [2] is Tyrosine-protein kinase BTK (Homo sapiens, UniProt Q06187). The data set is described as follows: Inhibition of recombinant human full length BTK preincubated for 10 mins followed by Tk-biotin peptide substrate addition after 90 mins by TR-FRET assay. For orientation: Time-resolved FRET reads energy transfer from a long-lived donor to a nearby acceptor.
Chain of Tyrosine-protein kinase BTK (Homo sapiens, UniProt Q06187) (Q06187 whole entry): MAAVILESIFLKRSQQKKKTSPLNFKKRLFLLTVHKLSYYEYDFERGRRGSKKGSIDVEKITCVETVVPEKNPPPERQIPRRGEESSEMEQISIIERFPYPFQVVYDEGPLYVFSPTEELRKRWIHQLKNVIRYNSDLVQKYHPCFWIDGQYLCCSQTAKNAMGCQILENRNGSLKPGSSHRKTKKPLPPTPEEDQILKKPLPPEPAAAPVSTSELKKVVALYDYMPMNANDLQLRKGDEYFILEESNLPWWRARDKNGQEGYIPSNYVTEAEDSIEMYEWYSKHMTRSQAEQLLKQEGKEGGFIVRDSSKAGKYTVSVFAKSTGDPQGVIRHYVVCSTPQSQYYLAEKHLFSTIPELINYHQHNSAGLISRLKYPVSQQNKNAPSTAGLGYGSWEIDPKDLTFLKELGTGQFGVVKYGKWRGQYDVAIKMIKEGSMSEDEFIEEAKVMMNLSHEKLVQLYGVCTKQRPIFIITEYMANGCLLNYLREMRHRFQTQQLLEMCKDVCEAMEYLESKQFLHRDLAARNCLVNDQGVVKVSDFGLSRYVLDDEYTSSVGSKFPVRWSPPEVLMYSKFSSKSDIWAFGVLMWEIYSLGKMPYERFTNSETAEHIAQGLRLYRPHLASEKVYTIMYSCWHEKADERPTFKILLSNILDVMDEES
Data set [3] in a line: Metabolic stability in mouse liver microsomes assessed as metabolism rate. It counts as ADME, microsome. For orientation: Microsomes from liver hold many membrane-bound enzymes, among them those of drug oxidation.
A short description of data set [4]: Metabolic stability in human liver microsomes assessed as metabolism rate. It counts as ADME, microsome.
Data set [5] in a line: Metabolic stability in rat liver microsomes assessed as metabolism rate. It counts as ADME, microsome.
The nature of data set [6]: Equilibrium aqueous solubility of the compound at pH 4. It counts as physicochemical.
Data set [7] in a line: Equilibrium aqueous solubility of the compound at pH 7.4. It counts as physicochemical.

The structures appear in SMILES notation.

Chain of Tyrosine-protein kinase BTK (Mus musculus, UniProt P35991) (P35991 whole entry): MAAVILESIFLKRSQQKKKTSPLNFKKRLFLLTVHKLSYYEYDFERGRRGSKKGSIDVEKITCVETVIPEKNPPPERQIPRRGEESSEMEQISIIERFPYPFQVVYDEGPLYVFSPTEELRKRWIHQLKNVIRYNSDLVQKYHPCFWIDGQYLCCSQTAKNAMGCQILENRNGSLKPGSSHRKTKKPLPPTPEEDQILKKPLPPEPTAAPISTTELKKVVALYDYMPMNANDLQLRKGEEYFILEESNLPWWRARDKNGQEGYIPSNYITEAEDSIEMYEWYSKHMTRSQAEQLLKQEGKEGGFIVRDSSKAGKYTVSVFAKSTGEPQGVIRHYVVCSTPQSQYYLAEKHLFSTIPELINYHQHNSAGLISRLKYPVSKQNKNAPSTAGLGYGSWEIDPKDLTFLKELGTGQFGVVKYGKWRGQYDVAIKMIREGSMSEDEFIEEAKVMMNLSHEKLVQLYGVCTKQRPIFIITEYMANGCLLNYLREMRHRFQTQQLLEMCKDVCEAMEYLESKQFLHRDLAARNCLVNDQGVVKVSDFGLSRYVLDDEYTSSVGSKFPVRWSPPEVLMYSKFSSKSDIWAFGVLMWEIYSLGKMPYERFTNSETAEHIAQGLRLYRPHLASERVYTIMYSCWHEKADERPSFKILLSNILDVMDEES

Take `CN1CCC(n2cc(-c3cc4c(-c5cccc(N6CCOc7cc(C8CC8)ccc7C6=O)c5CO)ncnc4[nH]3)cn2)CC1`: the IC50 (commonly the concentration at which inhibition is half-maximal) in data set [1] was determined as 0.032 µM.
For the compound `CN1CCN(Cc2ccc(-c3cc4c(-c5cccc(N6CCOc7cc(C8CC8)ccc7C6=O)c5CO)ncnc4[nH]3)cc2)CC1`, the figures for the IC50 in data set [2] and in data set [1] were 0.0065 µM and 0.048 µM, respectively.
As for `CC1(O)CN(C(=O)N2CC=C(c3cc4c(-c5cccc(N6CCOc7cc(C8CC8)cc(F)c7C6=O)c5CO)ccnc4[nH]3)CC2)C1`, the IC50 in data set [2] is 0.0011 µM; in data set [1], 0.0147 µM. In addition, the Drug metabolism in data set [3] is listed as 0.04 nmol/min/mg; in data set [4], < 0.04 nmol/min/mg; in data set [5], 0.04 nmol/min/mg.
For `CN1CCC(Oc2ccc(-c3cc4c(-c5cccc(N6CCOc7cc(C8CC8)ccc7C6=O)c5CO)ncnc4[nH]3)cc2)CC1`, the IC50 in data set [2] is 0.0026 µM; in data set [1], 0.051 µM.
For the compound `O=C1c2ccc(C3CC3)cc2OCCN1c1cccc(-c2ncnc3[nH]c(-c4ccc(CN5CCOCC5)cc4)cc23)c1CO`, the IC50 came to 0.0083 µM in data set [2] and 0.059 µM in data set [1].
`CN1CCN(Cc2ccc(-c3cc4c(-c5cccc(N6CCOc7cc(C8CC8)ccc7C6=O)c5CO)ccnc4[nH]3)nc2)CC1`: the IC50 in data set [2] amounted to 0.0054 µM; in data set [1] it was 0.014 µM.
Consider `CN(C)C(=O)N1CC=C(c2cc3c(-c4cccc(N5CCOc6cc(C7CC7)cc(F)c6C5=O)c4CO)ccnc3[nH]2)CC1`, for which the Drug metabolism in data set [3], in data set [4] and in data set [5] was 0.05 nmol/min/mg in each case. For the same compound, the IC50 in data set [1] was 0.0058 µM.
With `CC1(O)CCN(Cc2ccc(-c3cc4c(-c5cccc(N6CCOc7cc(C8CC8)ccc7C6=O)c5CO)ncnc4[nH]3)cc2)CC1`, the IC50 worked out at 0.0068 µM in data set [2] and 0.081 µM in data set [1].
Turning to `CN1CCN(c2ccc(-c3cc4c(-c5cccc(N6CCOc7cc(C8CC8)ccc7C6=O)c5CO)ncnc4[nH]3)cc2)CC1`, the IC50 in data set [1] is 0.036 µM.
`Cc1c(-c2ncnc3[nH]c(-c4ccc(CN5CCN(C)CC5)cc4)cc23)cccc1N1CCOc2cc(C3CC3)ccc2C1=O`: the IC50 in data set [2] turned out to be 0.021 µM.
With `CS(=O)(=O)N1CC=C(c2cc3c(-c4cccc(N5CCOc6cc(C7CC7)cc(F)c6C5=O)c4CO)ccnc3[nH]2)CC1`, the figures for the IC50 in data set [2] and in data set [1] were 0.0055 µM and 0.0177 µM, respectively. For the same compound, the values for the Drug metabolism in data set [3], in data set [4] and in data set [5] were 0.09 nmol/min/mg, 0.07 nmol/min/mg and 0.05 nmol/min/mg, respectively.
In the case of `CC(C)(O)CN1CC=C(c2cc3c(-c4cccc(N5CCOc6cc(C7CC7)cc(F)c6C5=O)c4CO)ccnc3[nH]2)CC1`, the thermodynamic solubility (commonly solubility found after equilibrating the solid with the medium) is < 100 µM in data set [6] and < 20 µM in data set [7]. The results for the Drug metabolism in data set [3], in data set [4] and in data set [5] were 0.1 nmol/min/mg, 0.04 nmol/min/mg and 0.09 nmol/min/mg, respectively. The IC50 in data set [1] stood at 0.075 µM.
For `N#CCC(=O)N1CC=C(c2cc3c(-c4cccc(N5CCOc6cc(C7CC7)cc(F)c6C5=O)c4CO)ccnc3[nH]2)CC1`, the Drug metabolism in data set [3] is < 0.04 nmol/min/mg; in data set [4] it was 0.07 nmol/min/mg; in data set [5] it was < 0.04 nmol/min/mg. Also, the IC50 in data set [1] was 0.0512 µM.
As for `CN1CC(Oc2ccc(-c3cc4c(-c5cccc(N6CCOc7cc(C8CC8)ccc7C6=O)c5CO)ncnc4[nH]3)cc2)C1`, the IC50 in data set [2] came to 0.0051 µM; in data set [1], 0.054 µM.
As to `CN1CCN(Cc2ccc(-c3cc4c(-c5cccc(N6CCOc7cc(C8CC8)cc(F)c7C6=O)c5CO)ccnc4[nH]3)nc2)CC1`, the Drug metabolism in data set [3] is on record as 0.06 nmol/min/mg; in data set [4], < 0.04 nmol/min/mg; in data set [5] it was 0.15 nmol/min/mg. Further, the IC50 in data set [1] was found to be 0.0055 µM.
`O=C1c2c(F)cc(C3CC3)cc2OCCN1c1cccc(-c2ccnc3[nH]c(-c4cnn(C5CCN(C6COC6)CC5)c4)cc23)c1CO`: the thermodynamic solubility in data set [6] is < 100 µM; in data set [7], < 20 µM. Besides, the Drug metabolism in data set [3] is given as 0.1 nmol/min/mg; in data set [4] it was 0.05 nmol/min/mg; in data set [5], < 0.04 nmol/min/mg. For the same compound, the IC50 in data set [1] stood at 0.0083 µM.

The values are drawn from ChEMBL document CHEMBL4177534, “Discovery and evaluation of 1H-pyrrolo[2,3-b]pyridine based selective and reversible small molecule BTK inhibitors for the treatment of rheumatoid arthritis” (Bioorg Med Chem Lett, 2017).
